Measurements from patent publication US10479780B2, “Aminopyrazole derivatives” (Chugai Seiyaku Kabushiki Kaisha, priority 2015, dated 2019).
Where two headings read alike, the source gives them in different places.

Assays:
Type in all cases: biochemical
human Yes1 enzyme = biological target: T1, human Yes1 enzyme (Homo sapiens, UniProt P07947); experiment: Yes1 enzyme inhibitory activity (time-resolved fluorometry, biotinylated peptide phosphorylation); conditions: read-out: YES_IC50
T1 construct: made in house
T1 sequence (P07947 whole entry): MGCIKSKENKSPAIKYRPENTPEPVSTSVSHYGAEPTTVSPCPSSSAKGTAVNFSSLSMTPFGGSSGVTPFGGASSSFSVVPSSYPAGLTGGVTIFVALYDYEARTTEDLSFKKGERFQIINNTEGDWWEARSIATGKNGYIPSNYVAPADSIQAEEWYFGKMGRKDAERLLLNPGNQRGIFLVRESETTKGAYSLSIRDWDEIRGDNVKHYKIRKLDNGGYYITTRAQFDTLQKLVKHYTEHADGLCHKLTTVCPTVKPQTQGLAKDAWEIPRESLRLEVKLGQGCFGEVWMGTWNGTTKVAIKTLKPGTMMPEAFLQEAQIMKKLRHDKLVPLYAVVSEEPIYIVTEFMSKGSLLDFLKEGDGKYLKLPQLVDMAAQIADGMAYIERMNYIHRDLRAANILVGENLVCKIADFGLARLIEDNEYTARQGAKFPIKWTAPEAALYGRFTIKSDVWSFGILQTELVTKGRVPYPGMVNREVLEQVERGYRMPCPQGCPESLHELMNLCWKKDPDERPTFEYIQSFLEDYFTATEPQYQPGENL
Method in brief: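 Inhibition was expressed against a compound-free control to give IC50, using TR-FRET read-out (Eu-cryptate anti-pTyr antibody, streptavidin-XL665).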

human Src enzyme = biological target: T2, human Src enzyme (Homo sapiens, UniProt P12931); experiment: Src enzyme inhibitory activity (time-resolved fluorometry, biotinylated peptide phosphorylation); conditions: read-out: SRC_IC50
T2 construct: purchased Carna Biosciences, Inc. 08-173
T2 sequence (P12931 whole entry): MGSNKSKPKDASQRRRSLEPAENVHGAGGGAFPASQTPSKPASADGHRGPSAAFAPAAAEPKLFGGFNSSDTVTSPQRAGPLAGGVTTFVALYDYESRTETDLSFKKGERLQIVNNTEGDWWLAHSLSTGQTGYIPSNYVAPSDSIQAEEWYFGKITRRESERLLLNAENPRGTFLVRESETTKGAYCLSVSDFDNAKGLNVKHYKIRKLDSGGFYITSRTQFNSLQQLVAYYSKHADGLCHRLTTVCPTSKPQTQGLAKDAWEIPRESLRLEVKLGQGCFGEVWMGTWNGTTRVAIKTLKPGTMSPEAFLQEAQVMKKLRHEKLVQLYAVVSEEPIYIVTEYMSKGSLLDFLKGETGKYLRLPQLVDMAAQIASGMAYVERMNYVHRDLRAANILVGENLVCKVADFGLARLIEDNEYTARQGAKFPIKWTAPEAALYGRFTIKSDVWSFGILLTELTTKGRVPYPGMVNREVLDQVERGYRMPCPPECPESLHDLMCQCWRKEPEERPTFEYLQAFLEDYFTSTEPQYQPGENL
Method in brief: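 Compounds were tested for blocking tyrosine phosphorylation of a biotinylated peptide substrate by recombinant human Src. Phosphorylated product was quantified by time-resolved fluorometry using europium cryptate and XL665 conjugates, and IC50 was calculated against the compound-free control.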

human Lck enzyme = biological target: T3, human Lck enzyme (Homo sapiens, UniProt P06239); experiment: Lck enzyme inhibitory activity (time-resolved fluorometry, biotinylated peptide phosphorylation); conditions: read-out: LCK_IC50
T3 construct: purchased Carna Biosciences, Inc. 08-170
T3 sequence (P06239 whole entry): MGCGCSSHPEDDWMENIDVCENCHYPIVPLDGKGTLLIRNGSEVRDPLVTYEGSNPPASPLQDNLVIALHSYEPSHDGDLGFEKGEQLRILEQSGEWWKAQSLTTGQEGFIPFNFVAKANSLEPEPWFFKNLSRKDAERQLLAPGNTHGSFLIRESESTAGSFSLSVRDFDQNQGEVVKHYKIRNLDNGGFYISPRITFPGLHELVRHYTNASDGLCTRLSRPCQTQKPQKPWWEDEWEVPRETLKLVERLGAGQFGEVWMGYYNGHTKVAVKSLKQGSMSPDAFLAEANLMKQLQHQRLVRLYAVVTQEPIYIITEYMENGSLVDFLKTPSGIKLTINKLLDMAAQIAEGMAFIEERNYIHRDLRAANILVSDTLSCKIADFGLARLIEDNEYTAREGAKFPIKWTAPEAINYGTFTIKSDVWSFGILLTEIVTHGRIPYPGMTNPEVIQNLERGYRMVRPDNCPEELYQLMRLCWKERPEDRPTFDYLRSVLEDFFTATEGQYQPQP
Method in brief: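 Readout pairs a europium cryptate-labelled anti-phosphotyrosine antibody with XL665-streptavidin, measured by time-resolved fluorescence. IC50 derived from percent inhibition against untreated controls.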

[1] = biotinylated peptide phosphorylation

SMILES | IC50 (human Yes1 enzyme; [1]) | IC50 (human Src enzyme; [1]) | IC50 (human Lck enzyme; [1]) | IC50 (human Yes1 enzyme) | IC50 (human Src enzyme) | IC50 (human Lck enzyme)
Cc1cc2cc(C(=O)c3cnn(-c4cnc(Oc5c(F)cccc5F)cc4C)c3N)[nH]c2cc1N1CCCS1(=O)=O [Example 4-2-116, [5-amino-1-[6-(2,6-difluorophenoxy)-4-methylpyridin-3-yl]pyrazol-4-yl]-[6-(1,1-dioxo-1,2-thiazolidin-2-yl)-5-methyl-1H-indol-2-yl]methanone] | 1.5 nM | 43 nM | 9.3 nM |  |  | 
Cc1cc(Oc2c(F)cccc2F)ncc1-n1ncc(C(=O)c2cc3cc(OC(F)F)c(NC4CCN(S(C)(=O)=O)CC4)cc3[nH]2)c1N [Example 4-23-015, [5-amino-1-[6-(2,6-difluorophenoxy)-4-methylpyridin-3-yl]pyrazol-4-yl]-[5-(difluoromethoxy)-6-[(1-methylsulfonylpiperidin-4-yl)amino]-1H-indol-2-yl]methanone] | 5.4 nM | 49 nM | 23 nM |  |  | 
Cc1cc(Oc2ccccc2F)ccc1-n1ncc(C(=O)c2cc3cc(F)c(NS(=O)(=O)NC(C)C)cc3[nH]2)c1N [Example 4-5-004, [5-amino-1-[4-(2-fluorophenoxy)-2-methylphenyl]pyrazol-4-yl]-[5-fluoro-6-(propan-2-ylsulfamoylamino)-1H-indol-2-yl]methanone] | 3.3 nM | 65 nM | 41 nM |  |  | 
Cc1cc(Oc2c(F)cccc2F)ncc1-n1ncc(C(=O)c2cc3cc(F)c(NS(=O)(=O)c4cncc(F)c4)cc3[nH]2)c1N [Example 5-1-548, N-[2-[5-amino-1-[6-(2,6-difluorophenoxy)-4-methylpyridin-3-yl]pyrazole-4-carbonyl]-5-fluoro-1H-indol-6-yl]-5-fluoropyridine-3-sulfonamide] | 7.6 nM | 640 nM | 78 nM |  |  | 
Cc1cc(Oc2ccccc2F)ncc1-n1ncc(C(=O)c2cc3cc(Cl)c(NS(C)(=O)=O)cc3[nH]2)c1N [Example 4-2-085, N-[2-[5-amino-1-[6-(2-fluorophenoxy)-4-methylpyridin-3-yl]pyrazole-4-carbonyl]-5-chloro-1H-indol-6-yl]methanesulfonamide] | 0.81 nM | 51 nM | 7.6 nM |  |  | 
Cc1cc(Oc2ccccc2F)ccc1-n1ncc(C(=O)c2cc3cc(OCCN4[C@@H]5CC[C@H]4COC5)c(NS(C)(=O)=O)cc3[nH]2)c1N [Example 4-24-039, N-[2-[5-amino-1-[4-(2-fluorophenoxy)-2-methylphenyl]pyrazole-4-carbonyl]-5-[2-[(1S,5R)-3-oxa-8-azabicyclo[3.2.1]octan-8-yl]ethoxy]-1H-indol-6-yl]methanesulfonamide] | 0.46 nM | 8.3 nM | 2.8 nM |  |  | 
Cc1cc(Oc2ccccc2F)ncc1-n1ncc(C(=O)c2cc3cc(OC(F)F)c(NS(=O)(=O)C4CCOCC4)cc3[nH]2)c1N [Example 5-1-401, N-[2-[5-amino-1-[6-(2-fluorophenoxy)-4-methylpyridin-3-yl]pyrazole-4-carbonyl]-5-(difluoromethoxy)-1H-indol-6-yl]oxane-4-sulfonamide] | 2.5 nM | 140 nM | 41 nM |  |  | 
Cc1cc2cc(C(=O)c3cnn(-c4ccc(Oc5ccccc5F)cc4C)c3N)[nH]c2cc1NS(=O)(=O)C1CCOCC1 [Example 5-1-347, N-[2-[5-amino-1-[4-(2-fluorophenoxy)-2-methylphenyl]pyrazole-4-carbonyl]-5-methyl-1H-indol-6-yl]oxane-4-sulfonamide] |  |  |  | 0.87 nM | 46 nM | 11 nM
COc1cc2cc(C(=O)c3cnn(-c4ccc(Oc5ccccc5F)cc4C)c3N)[nH]c2cc1NS(=O)(=O)CC(=O)N1CCOCC1 [Example 4-10-012, N-[2-[5-amino-1-[4-(2-fluorophenoxy)-2-methylphenyl]pyrazole-4-carbonyl]-5-methoxy-1H-indol-6-yl]-2-morpholin-4-yl-2-oxoethanesulfonamide] | 0.3 nM | 9.8 nM | 5.1 nM |  |  | 
Cc1cc(Oc2ccccc2F)ccc1-n1ncc(C(=O)c2cc3cc(OCC(F)F)c(N4C(=O)NC5(CCNC5)C4=O)cc3[nH]2)c1N (stereo not drawn) [Example 5-1-349, 3-[2-[5-amino-1-[4-(2-fluorophenoxy)-2-methylphenyl]pyrazole-4-carbonyl]-5-(2,2-difluoroethoxy)-1H-indol-6-yl]-1,3,7-triazaspiro [4.4]nonane-2,4-dione] |  |  |  | 0.51 nM | 6.9 nM | 2.5 nM
Cc1cc(Oc2ccccc2)cc(F)c1-n1ncc(C(=O)c2cc3cc(NS(C)(=O)=O)c(Cl)cc3[nH]2)c1N [Example 4-2-095, N-[2-[5-amino-1-(2-fluoro-6-methyl-4-phenoxyphenyl)pyrazole-4-carbonyl]-6-chloro-1H-indol-5-yl]methanesulfonamide] | 0.85 nM | 14 nM | 5.3 nM |  |  | 
Cc1cc2cc(C(=O)c3cnn(-c4cnc(Oc5ccccc5F)cc4C)c3N)[nH]c2cc1NS(=O)(=O)c1cc(F)cc(C#N)c1 [Example 5-1-497, N-[2-[5-amino-1-[6-(2-fluorophenoxy)-4-methylpyridin-3-yl]pyrazole-4-carbonyl]-5-methyl-1H-indol-6-yl]-3-cyano-5-fluorobenzenesulfonamide] | 4.7 nM | 660 nM | 170 nM |  |  | 
Cc1cc2cc(C(=O)c3cnn(-c4ccc(Oc5ccccc5F)c(F)c4)c3N)[nH]c2cc1NS(C)(=O)=O [Example 5-1-198, N-[2-[5-amino-1-[3-fluoro-4-(2-fluorophenoxy)phenyl]pyrazole-4-carbonyl]-5-methyl-1H-indol-6-yl]methanesulfonamide] |  |  |  | 1.5 nM | 270 nM | 36 nM
Cc1cc(Oc2ccccc2F)ccc1-n1ncc(C(=O)c2cc3cc(OCC(F)F)c(N4CCOC4=O)cc3[nH]2)c1N [Example 4-21-003, 3-[2-[5-amino-1-[4-(2-fluorophenoxy)-2-methylphenyl]pyrazole-4-carbonyl]-5-(2,2-difluoroethoxy)-1H-indol-6-yl]-1,3-oxazolidin-2-one] | 0.53 nM | 2.4 nM | 1.5 nM |  |  | 
Cc1cc2cc(C(=O)c3cnn(-c4ccc(Oc5ccccc5F)cc4C)c3N)[nH]c2cc1N1C(=O)NC2(CCN(Cc3ccccc3)C2)C1=O (stereo not drawn) [Example 5-1-394, 3-[2-[5-amino-1-[4-(2-fluorophenoxy)-2-methylphenyl]pyrazole-4-carbonyl]-5-methyl-1H-indol-6-yl]-7-benzyl-1,3,7-tnazaspiro[4.4] nonane-2,4-dione] |  |  |  | 2.9 nM | 93 nM | 21 nM
Cc1cc(Oc2ccccc2F)cc(F)c1-n1ncc(C(=O)c2cc3cc(OCC(F)F)c(C4CCN(S(C)(=O)=O)CC4)cc3[nH]2)c1N [Example 4-17-018, [5-amino-1-[2-fluoro-4-(2-fluorophenoxy)-6-methylphenyl]pyrazol-4-yl]-[5-(2,2-difluoroethoxy)-6-(1-methylsulfonylpiperidin-4-yl)-1H-indol-2-yl]methanone] | 2.4 nM | 19 nM | 11 nM |  |  | 
Cc1cc(-n2ncc(C(=O)c3cc4cc(OC5CCN(C(C)C)CC5)c(N5CCC(N6CCOCC6)CC5)cc4[nH]3)c2N)ccc1Oc1ccccc1F [Example 5-1-182, [5-amino-1-[4-(2-fluorophenoxy)-3-methylphenyl]pyrazol-4-yl]-[6-(4-morpholin-4-ylpiperidin-1-yl)-5-(1-propan-2-ylpiperidin-4-yl)oxy-1H-indol-2-yl]methanone] |  |  |  | 0.17 nM | 24 nM | 2.7 nM
Cc1cc(Oc2ccccc2F)ccc1-n1ncc(C(=O)c2cc3cc(F)c(N4C(=O)NC5(CCC5)C4=O)cc3[nH]2)c1N [Example 5-1-374, 7-[2-[5-amino-1-[4-(2-fluorophenoxy)-2-methylphenyl]pyrazole-4-carbonyl]-5-fluoro-1H-indol-6-yl]-5,7-diazaspiro[3.4]octane-6,8-dione] |  |  |  | 2.9 nM | 36 nM | 13 nM
Cc1cc2cc(C(=O)c3cnn(-c4ccc(Oc5ccccc5F)cc4C)c3N)[nH]c2cc1N1C(=O)N[C@@H](Cc2ccccc2)C1=O [Example 5-1-457, (5S)-3-[2-[5-amino-1-[4-(2-fluorophenoxy)-2-methylphenyl]pyrazole-4-carbonyl]-5-methyl-1H-indol-6-yl]-5-benzylimidazolidine-2,4-dione] | 2.3 nM | 78 nM | 19 nM |  |  | 
Cc1cc(Oc2c(F)cccc2F)ncc1-n1ncc(C(=O)c2cc3cc(N4CCOCC4)c(NS(=O)(=O)CCCF)cc3[nH]2)c1N [Example 4-24-019, N-[2-[5-amino-1-[6-(2,6-difluorophenoxy)-4-methylpyridin-3-yl]pyrazole-4-carbonyl]-5-morpholin-4-yl-1H-indol-6-yl]-3-fluoropropane-1-sulfonamide] | 3.9 nM | 140 nM | 62 nM |  |  | 
Cc1cc(Oc2c(F)cccc2F)ncc1-n1ncc(C(=O)c2cc3cc(F)c(N4C(=O)N[C@@H](Cc5ccccc5)C4=O)cc3[nH]2)c1N [Example 5-1-430, (5S)-3-[2-[5-amino-1-[6-(2,6-difluorophenoxy)-4-methylpyridin-3-yl]pyrazole-4-carbonyl]-5-fluoro-1H-indol-6-yl]-5-benzylimidazolidine-2,4-dione] | 8.4 nM | 280 nM | 37 nM |  |  | 
Cc1cc2cc(C(=O)c3cnn(-c4cnc(Oc5c(F)cccc5F)cc4C)c3N)[nH]c2cc1C1CCN(S(C)(=O)=O)CC1 [Example 5-1-091, [5-amino-1-[6-(2,6-difluorophenoxy)-4-methylpyridin-3-yl]pyrazol-4-yl]-[5-methyl-6-(1-methylsulfonylpiperidin-4-yl)-1H-indol-2-yl] methanone] |  |  |  | 3.2 nM | 24 nM | 3.7 nM
